This is an account of results in ChEMBL document CHEMBL5543158, “Design of Evodiamine-Glucose Conjugates with Improved In Vivo Antitumor Activity” (J Med Chem, 2024).

The structures appear in SMILES notation. ≈ marks a conversion by molar mass, not a printed value.

For one data set, the system named is A549. In words: Antiproliferative activity against human A549 cells measured after 72 hrs by CCK-8 cells. Type of data set: functional, cell-based. The conditions noted are these: A549, 72 h.
Data set [1] in a line: Solubility of the compound in double distilled water measured upto 30 mins by UV-vis spectrophotometry. Type of data set: physicochemical.
Data set [2] relates to HCT-116. In words: Antiproliferative activity against human HCT116 cells measured after 72 hrs by CCK-8 cells. Type of data set: functional, cell-based. Particulars: HCT-116, 72 h.
A further data set deals with U-87 MG. Nature of the data set: Antiproliferative activity against human U-87 MG cells measured after 72 hrs by CCK-8 cells. The data set is classed as functional, cell-based, U-87MG ATCC.
Data set [3] concerns HCT-116. In words: Antiproliferative activity against human HCT116 cells in presence of 10 uM phloretin measured after 72 hrs by CCK-8 assay. Particulars: HCT-116, 72 h. Type of data set: functional, cell-based. On the technique in general: Tetrazolium assays rely on reduction of a dye to a coloured formazan, in cell work by metabolically active cells.
Data set [4] deals with HCT-116. In words: Antiproliferative activity against human HCT116 cells in presence of 5 uM phloretin measured after 72 hrs by CCK-8 assay. The conditions noted are these: HCT-116, 72 h. Type of data set: functional, cell-based.
Data set [5] is described as follows: Toxicity in mouse xenografted with human HCT-116 cells assessed as kidney damage by measuring atrophy of glomeruli at 5 mg/kg, ip twice a day administered 21 consecutive days. Type of data set: organism-based. The conditions noted are these: in vivo.
For data set [6], the system named is HCT-116. In words: In vivo antitumor effect in human HCT-116 cells xenografted mouse model assessed as tumor growth inhibition at 5 mg/kg, ip twice a day administered 21 consecutive days. The data set is classed as functional. Particulars: read-out: TGI. On the technique in general: In xenograft studies the graft and the host belong to different species.
Data set [7] is described as follows: Toxicity in mouse xenografted with human HCT-116 cells assessed as organ damage by measuring thickened alveolar wall in lungs at 5 mg/kg, ip twice a day administered 21 consecutive days. The data set is classed as organism-based. Particulars: in vivo.
The nature of data set [8]: Toxicity in mouse xenografted with human HCT-116 cells assessed as liver damage by measuring enlarged sizes of vacuole at 5 mg/kg, ip twice a day administered 21 consecutive days. Particulars: in vivo. Type of data set: organism-based.
Data set [9] in a line: Toxicity in mouse xenografted with human HCT-116 cells assessed as organ damage by measuring change in heart at 5 mg/kg, ip twice a day administered 21 consecutive days. The conditions noted are these: in vivo. Type of data set: organism-based.
Data set [10] in a line: Toxicity in mouse xenografted with human HCT-116 cells assessed as organ damage by measuring change in spleen at 5 mg/kg, ip twice a day administered 21 consecutive days. Type of data set: organism-based. The conditions noted are these: in vivo.
Data set [11] in a line: Cytotoxicity against HUVEC after 72 hrs by CCK-8 assay. The data set is classed as toxicity, cell-based. The conditions noted are these: human, HUVEC cells.

The IC50 is the point on the concentration scale where inhibition reaches its midpoint. Usually solubility stands for the dissolved amount per volume that the medium holds. Read a high solubility as a readily soluble substance.

For `CN1c2ccc(F)cc2C(=O)N2CCc3c([nH]c4ccc(OC(=O)CCCC(=O)NCCCO[C@@H]5O[C@H](CO)[C@@H](O)[C@H](O)[C@H]5O)cc34)[C@H]21`, the IC50 with A549, with HCT-116 [2] and in the data set on U-87 MG was 54 nM each time. In data set [1], the solubility at 0.5 h amounted to 2470 µg/mL (≈ 3.68 mM).

Turning to `CN1c2ccc(F)cc2C(=O)N2CCc3c([nH]c4ccc(OCc5cn(CCCO[C@@H]6O[C@H](CO)[C@@H](O)[C@H](O)[C@H]6O)nn5)cc34)[C@H]21`, the concentration in solution in [1] (solubility at 0.5 h) came to 2020 µg/mL (≈ 3.16 mM).

With `CN1c2ccc(F)cc2C(=O)N2CCc3c([nH]c4ccc(OC(=O)CCC(=O)NCCCO[C@@H]5O[C@H](CO)[C@@H](O)[C@H](O)[C@H]5O)cc34)[C@H]21`, the IC50 in the data set on A549, in the data set on HCT-116 [2] and in the data set with U-87 MG was 49 nM throughout. Further, in data set [1], the concentration in solution (solubility at 0.5 h) was 1990 µg/mL (≈ 3.03 mM).

For `CN1c2ccc(F)cc2C(=O)N2CCc3c([nH]c4ccc(O)cc34)[C@H]21`, the half-maximal inhibitory concentration (IC50) is 545 nM in the data set on HCT-116 [3] and 54 nM in the data set with HCT-116 [4]. For the same compound, the Activity entry in data set [5], in data set [7], in data set [8], in data set [9] and in data set [10] was “Toxic” each time. Moreover, in the data set on HCT-116 [6], the inhibition in vivo at 5 mg/kg was found to be 51%. This compound displayed a solubility at 0.5 h in data set [1] of 145 µg/mL (≈ 0.43 mM). The compound further yielded a concentration for half-maximal inhibition (IC50) at 72 h in [11] of 16 nM.
